Patent US20250230193A1, “CYCLIC COMPOUND HAVING SELECTIVE KRAS INHIBITORY EFFECT ON HRAS AND NRAS” (CHUGAI SEIYAKU KABUSHIKI KAISHA, priority 2022, published 2025)
*1 amine or outer side, *2 acyl side, *3 side chain or, on linkers, in order; H or OH if unused. Where a SMILES comes first, the peptide text is derived from it. Bridges are numbered along the chain shown (N, C = ends). [ ]: non-standard residue; d: D form. The star is where a group is joined. hPhe(3-Cl-4-CF3) = N[C@@H](CCc1ccc(C(F)(F)F)c(Cl)c1)C(=O)O; NPrPhe(4-CF3) = CCCN[C@@H](Cc1ccc(C(F)(F)F)cc1)C(=O)O; X49 = Cc1ccc(C[C@@H](C(=O)[*:2])N(CC2CC2)[*:1])cc1; NMeGly(cPent) = CN[C@H](C(=O)O)C1CCCC1; Hyp = O=C(O)[C@@H]1C[C@@H](O)CN1; NMeD = CN[C@@H](CC(=O)O)C(=O)O; NMeL = CN[C@@H](CC(C)C)C(=O)O; Morpholide = C1CN(*)CCO1; Ac5c = NC1(C(=O)O)CCCC1; Aze = O=C(O)[C@@H]1CCN1; Sar = CNCC(=O)O

Legend:
[1] = target: GDP-bound NRAS wild-type protein (Homo sapiens, UniProt P01111); assay: Binding to NRAS by surface plasmon resonance (SPR), Single Cycle Kinetics; settings: SPR; for NRAS/KRAS (ratio of KD value for NRAS to KD value for KRAS) / NRAS/KRAS (ratio of KD value with respect to NRAS to KD value with respect to KRAS): GDP-bound NRAS wild-type vs GDP-bound KRAS wild-type
[2] = target: GDP-bound HRAS wild-type protein (Homo sapiens, UniProt P01112); assay: Binding to HRAS by surface plasmon resonance (SPR), Single Cycle Kinetics; settings: SPR; for HRAS/KRAS (ratio of KD value for HRAS to KD value for KRAS) / HRAS/KRAS (ratio of KD value with respect to HRAS to KD value with respect to KRAS): GDP-bound HRAS wild-type vs GDP-bound KRAS wild-type
GDP-bound HRAS wild-type protein, sequence (P01112 whole entry): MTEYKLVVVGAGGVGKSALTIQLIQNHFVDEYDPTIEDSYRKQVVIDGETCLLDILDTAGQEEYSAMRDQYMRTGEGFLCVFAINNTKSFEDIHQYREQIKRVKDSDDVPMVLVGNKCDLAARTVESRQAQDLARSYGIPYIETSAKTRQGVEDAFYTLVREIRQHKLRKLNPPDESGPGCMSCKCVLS

GDP-bound NRAS wild-type protein, sequence (P01111 whole entry): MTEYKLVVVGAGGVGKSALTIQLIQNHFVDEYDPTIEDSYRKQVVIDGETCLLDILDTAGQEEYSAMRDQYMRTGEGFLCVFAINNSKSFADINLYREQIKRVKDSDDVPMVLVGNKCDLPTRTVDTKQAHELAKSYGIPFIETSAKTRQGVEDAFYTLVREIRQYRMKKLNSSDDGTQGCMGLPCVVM

CCO[C@@H]1C[C@H]2C(=O)NC3(CC(C)(C)C3)C(=O)N(C)[C@@H](C3CCCC3)C(=O)N(C)[C@H](C(=O)N(C)C)CC(=O)N(C)[C@@H](CC)C(=O)N[C@@H]([C@@H](C)CC)C(=O)N(C)CC(=O)N(C)[C@H]3C/C=C\CCN(C3=O)[C@@H](Cc3ccc(C(F)(F)F)cc3)C(=O)N(C)CC(=O)N[C@@H](CCc3ccc(C(F)(F)F)c(Cl)c3)C(=O)N2C1 [PP1746]
NRAS/KRAS (ratio of KD value for NRAS to KD value for KRAS) ([1]; KD ratio): A (a compound having 10 or more and less than 20 is denoted as A) | HRAS/KRAS (ratio of KD value for HRAS to KD value for KRAS) ([2]; KD ratio): A (a compound having 10 or more and less than 20 is denoted as A)

C#CC[C@H]1C(=O)N[C@@H]([C@@H](C)CC)C(=O)N(C)CC(=O)N(C)[C@H]2C/C=C\CCN(C2=O)[C@@H](Cc2ccc(C(F)(F)F)cc2)C(=O)N(C)CC(=O)N[C@@H](CCc2cc(F)c(C(F)(F)F)c(F)c2)C(=O)N2C[C@H](OCC)C[C@H]2C(=O)NC2(CC(C)(C)C2)C(=O)N(C)[C@@H](C2CCCC2)C(=O)N(C)[C@H](C(=O)N(C)CC)CC(=O)N1C [PP2073]
NRAS/KRAS (ratio of KD value with respect to NRAS to KD value with respect to KRAS) [1]: A (a compound having 10 or more and less than 20 is denoted as A) | HRAS/KRAS (ratio of KD value with respect to HRAS to KD value with respect to KRAS) [2]: A (a compound having 10 or more and less than 20 is denoted as A)

CCCN1C(=O)[C@@H]2CCN2C(=O)CN(C)C(=O)[C@H]([C@@H](C)CC)NC(=O)[C@H](CC(C)C)N(C)C(=O)C[C@@H](C(=O)N2CCOCC2)NC(=O)[C@H](C2CCCC2)N(C)C(=O)C2(CCCC2)NC(=O)[C@@H]2C[C@@H](OCC)CN2C(=O)[C@H](CCc2ccc(C(F)(F)F)c(Cl)c2)NC(=O)CN(C)C(=O)[C@@H]1Cc1ccc(C(F)(F)F)cc1 [PP0353] ([NMeL]I[Sar][Aze][NPrPhe(4-CF3)][Sar][hPhe(3-Cl-4-CF3)][Hyp](Et)[Ac5c][NMeGly(cPent)]D-Morpholide; lactam N-11)
NRAS/KRAS (ratio of KD for GDP-bound NRAS wild-type to KD for KRAS) ([1]; KD ratio NRAS/KRAS): C (A compound having a KD ratio of 0.1 or more and less than 3 is denoted as C) | HRAS/KRAS (ratio of KD for GDP-bound HRAS wild-type to KD for KRAS) ([2]; KD ratio HRAS/KRAS): B (a compound having 3 or more and less than 10 is denoted as B)

CCCCO[C@@H]1C[C@H]2C(=O)NC3(CCC3)C(=O)N(C)[C@@H](C3CCCC3)C(=O)N(C)[C@H](C(=O)N3CCOCC3)CC(=O)N(C)[C@@H](CC(C)C)C(=O)N[C@@H]([C@@H](C)CC)C(=O)N(C)CC(=O)N(C)[C@H]3CCCCCN(C3=O)[C@@H](Cc3ccc(C(F)(F)F)cc3)C(=O)N(C)CC(=O)N[C@@H](CCc3cc(F)c(C(F)(F)F)c(F)c3)C(=O)N2C1 [PP1004]
NRAS/KRAS (ratio of KD value with respect to NRAS to KD value with respect to KRAS) ([1]; KD ratio): B (a compound having 3 or more and less than 10 is denoted as B) | HRAS/KRAS (ratio of KD value with respect to HRAS to KD value with respect to KRAS) ([2]; KD ratio): B (a compound having 3 or more and less than 10 is denoted as B)

CC[C@H](C)[C@@H]1NC(=O)[C@H](CC(C)C)N(C)C(=O)C[C@@H](C(=O)N2CCOCC2)N(C)C(=O)[C@H](C2CCCC2)N(C)C(=O)[C@](C)(CC)NC(=O)[C@@H]2CCCN2C(=O)[C@H](CCc2cc(F)c(C(F)(F)F)c(F)c2)NC(=O)CN(C)C(=O)[C@H](Cc2ccc(C(F)(F)F)cc2)N2CCCCC[C@@H](C2=O)N(C)C(=O)CN(C)C1=O [PP0500]
NRAS/KRAS (ratio of KD value with respect to GDP-bound NRAS wild-type protein to KD value with respect to KRAS) ([1]; KD ratio NRAS/KRAS): B (a compound having 3 or more and less than 10 is denoted as B) | HRAS/KRAS (ratio of KD value with respect to GDP-bound HRAS wild-type protein to KD value with respect to KRAS) ([2]; KD ratio HRAS/KRAS): B (a compound having 3 or more and less than 10 is denoted as B)

CCO[C@@H]1C[C@H]2C(=O)NC3(CCC3)C(=O)N(C)[C@@H](C3CCCC3)C(=O)N(C)[C@H](C(=O)N3CCOCC3)CC(=O)N(C)[C@@H](CC3CC3)C(=O)N[C@@H]([C@@H](C)CC)C(=O)N(C)CC(=O)N(C)[C@H]3CCCCCN(C3=O)[C@@H](Cc3ccc(F)cc3)C(=O)N(C)CC(=O)N[C@@H](CCc3cc(F)c(C(F)(F)F)c(F)c3)C(=O)N2C1 [PP1178]
NRAS/KRAS (ratio of KD value with respect to NRAS to KD value with respect to KRAS) ([1]; KD ratio): B (a compound having 3 or more and less than 10 is denoted as B) | HRAS/KRAS (ratio of KD value with respect to HRAS to KD value with respect to KRAS) ([2]; KD ratio): B (a compound having 3 or more and less than 10 is denoted as B)

CCO[C@@H]1C[C@H]2C(=O)NC3(CCC3)C(=O)N(C)[C@@H](C3CCCC3)C(=O)N(C)[C@H](C(=O)N(C)C)CC(=O)N(C)[C@@H](CC)C(=O)N[C@@H]([C@@H](C)CC)C(=O)N(C)CC(=O)N(C)[C@H]3CCCCN(C3=O)[C@@H](Cc3ccc(C(F)(F)F)cc3)C(=O)N(C)CC(=O)N[C@@H](CCc3c(F)c(F)c(C(F)(F)F)c(F)c3F)C(=O)N2C1 [PP0886]
NRAS/KRAS (ratio of KD value with respect to NRAS to KD value with respect to KRAS) ([1]; KD ratio): C (A compound having a KD ratio of 0.1 or more and less than 3 is denoted as C) | HRAS/KRAS (ratio of KD value with respect to HRAS to KD value with respect to KRAS) ([2]; KD ratio): B (a compound having 3 or more and less than 10 is denoted as B)

CC[C@H](C)[C@@H]1NC(=O)[C@H](CC(C)C)N(C)C(=O)C[C@@H](C(=O)N2CCOCC2)N(C)C(=O)[C@H](C2CCCC2)N(C)C(=O)C2(CCCC2)NC(=O)[C@@H]2CCCN2C(=O)[C@H](CCc2ccc(C(F)(F)F)c(Cl)c2)NC(=O)CN(C)C(=O)[C@H](Cc2ccc(C)cc2)N(CC2CC2)C(=O)CN(C)C(=O)CN(C)C1=O [PP0064] ([NMeL]I[Sar][Sar][X49][Sar][hPhe(3-Cl-4-CF3)]P[Ac5c][NMeGly(cPent)][NMeD]-Morpholide; lactam N-11)
NRAS/KRAS (ratio of KD for GDP-bound NRAS wild-type to KD for KRAS) ([1]; KD ratio NRAS/KRAS): C (A compound having a KD ratio of 0.1 or more and less than 3 is denoted as C) | HRAS/KRAS (ratio of KD for GDP-bound HRAS wild-type to KD for KRAS) ([2]; KD ratio HRAS/KRAS): C (A compound having a KD ratio of 0.1 or more and less than 3 is denoted as C)

CCCCO[C@@H]1C[C@H]2C(=O)NC3(CCC3)C(=O)N(C)[C@@H](C3CCCC3)C(=O)N(C)[C@H](C(=O)N3CCOCC3)CC(=O)N(C)[C@@H](CC(C)C)C(=O)N[C@@H]([C@@H](C)CC)C(=O)N(C)CC(=O)N(C)[C@H]3CCCCN(C3=O)[C@@H](Cc3ccc(C(F)(F)F)cc3)C(=O)N(C)CC(=O)N[C@@H](CCc3cc(F)c(C(F)(F)F)c(F)c3)C(=O)N2C1 [PP1013]
NRAS/KRAS (ratio of KD value with respect to NRAS to KD value with respect to KRAS) ([1]; KD ratio): C (A compound having a KD ratio of 0.1 or more and less than 3 is denoted as C) | HRAS/KRAS (ratio of KD value with respect to HRAS to KD value with respect to KRAS) ([2]; KD ratio): C (A compound having a KD ratio of 0.1 or more and less than 3 is denoted as C)

CCO[C@@H]1C[C@H]2C(=O)NC3(CC(C)(C)C3)C(=O)N(C)[C@@H](C(CC)CC)C(=O)N(C)[C@H](C(=O)N(C)C)CC(=O)N(C)[C@@H](C(C)C)C(=O)N[C@@H]([C@@H](C)CC)C(=O)N(C)CC(=O)N(C)[C@H]3C/C=C\CCN(C3=O)[C@@H](Cc3ccc(C)cc3)C(=O)N(C)CC(=O)N[C@@H](CCc3ccc(C(F)(F)F)c(OC)c3)C(=O)N2C1 [PP2173]
NRAS/KRAS (ratio of KD value with respect to NRAS to KD value with respect to KRAS) [1]: A (a compound having 10 or more and less than 20 is denoted as A) | HRAS/KRAS (ratio of KD value with respect to HRAS to KD value with respect to KRAS) [2]: A (a compound having 10 or more and less than 20 is denoted as A)

CC[C@H](C)[C@@H]1NC(=O)[C@H](CC(C)C)N(C)C(=O)C[C@@H](C(=O)N(C)C)N(C)C(=O)[C@H](C2CCCC2)N(C)C(=O)C2(CC(C)(C)C2)NC(=O)[C@@H]2CCCN2C(=O)[C@H](CCc2cc(F)c(C(F)(F)F)c(F)c2)NC(=O)CN(C)C(=O)[C@H](Cc2ccc(C(F)(F)F)cc2)N2CC/C=C\C[C@@H](C2=O)N(C)C(=O)CN(C)C1=O [PP1727]
NRAS/KRAS (ratio of KD value for NRAS to KD value for KRAS) ([1]; KD ratio): A (a compound having 10 or more and less than 20 is denoted as A) | HRAS/KRAS (ratio of KD value for HRAS to KD value for KRAS) ([2]; KD ratio): A (a compound having 10 or more and less than 20 is denoted as A)
